Test results as given in ChEMBL document CHEMBL1136090, “Discovery of a potent and selective series of pyrazole bacterial methionyl-tRNA synthetase inhibitors” (Bioorg Med Chem Lett, 2003).

Key:
[1] = tested on: Staphylococcus aureus subsp. aureus MW2; experiment: Selectivity ratio for inhibition of human Methionyl-tRNA synthetase to that of Staphylococcus aureus Methionyl-tRNA synthetase.
[2] = target: T1, Methionine--tRNA ligase, cytoplasmic (Homo sapiens, UniProt P56192); experiment: Inhibitory activity against human methionyl-tRNA synthetase (hMetRS).
T1 sequence (P56192 whole entry): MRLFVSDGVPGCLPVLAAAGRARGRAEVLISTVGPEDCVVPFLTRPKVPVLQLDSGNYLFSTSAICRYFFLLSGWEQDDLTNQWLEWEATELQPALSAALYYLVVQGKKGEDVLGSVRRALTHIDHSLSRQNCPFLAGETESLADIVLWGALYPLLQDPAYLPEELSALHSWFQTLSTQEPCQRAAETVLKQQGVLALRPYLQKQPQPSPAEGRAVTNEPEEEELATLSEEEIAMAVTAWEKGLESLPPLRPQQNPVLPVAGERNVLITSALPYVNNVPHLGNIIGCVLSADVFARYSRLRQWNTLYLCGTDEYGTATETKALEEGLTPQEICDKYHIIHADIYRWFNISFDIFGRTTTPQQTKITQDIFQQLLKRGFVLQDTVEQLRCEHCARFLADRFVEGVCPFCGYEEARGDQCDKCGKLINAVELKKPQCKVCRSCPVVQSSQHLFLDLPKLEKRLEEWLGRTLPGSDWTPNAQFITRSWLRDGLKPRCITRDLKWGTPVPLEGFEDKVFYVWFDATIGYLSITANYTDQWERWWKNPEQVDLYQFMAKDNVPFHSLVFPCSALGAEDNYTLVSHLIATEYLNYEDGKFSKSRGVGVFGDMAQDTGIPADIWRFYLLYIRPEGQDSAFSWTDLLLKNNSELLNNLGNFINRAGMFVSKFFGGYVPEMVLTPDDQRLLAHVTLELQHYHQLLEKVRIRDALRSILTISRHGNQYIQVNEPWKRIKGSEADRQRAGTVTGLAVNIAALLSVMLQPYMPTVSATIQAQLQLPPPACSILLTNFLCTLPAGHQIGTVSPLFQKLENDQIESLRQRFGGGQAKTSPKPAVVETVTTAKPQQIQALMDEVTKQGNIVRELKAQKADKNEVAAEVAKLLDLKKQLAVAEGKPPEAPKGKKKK

SMILES	Ratio [1]	IC50 [2] [µM]
O=C(O)c1cc(-c2ccc(-c3ccc(Cl)cc3Cl)cc2)n(Cc2ccncc2)n1	52	26.2
O=C(O)c1cc(-c2ccc(-c3ccccc3)cc2)n(-c2ccc(Cl)cc2Cl)n1	1	44.3
COc1ccc(-n2nc(C(=O)O)cc2-c2ccc(-c3ccc(Cl)cc3Cl)cc2)cc1	> 10	> 100
O=C(O)c1cc(-c2ccc(-c3ccc(Cl)cc3Cl)cc2)n(Cc2cccnc2)n1	> 152	> 100
O=C(NCc1nn[nH]n1)c1cc(-c2ccc(-c3ccc(Cl)cc3Cl)cc2)n(-c2cccnc2)n1	106	13.8
CCn1nc(C(=O)O)cc1-c1ccc(-c2ccc(Cl)cc2Cl)cc1	45	46.4
O=C(O)c1cc(-c2ccc(-c3ccc(Cl)cc3Cl)cc2)n(-c2ccc(Cl)cc2Cl)n1	2	11.9
O=C(O)c1cc(-c2ccc(-c3ccc(Cl)cc3Cl)cc2)nn1Cc1ccccn1	8	22.3
O=C(O)Cn1nc(C(=O)O)cc1-c1ccc(-c2ccc(Cl)cc2Cl)cc1	29	100
O=C(O)c1cc(-c2ccc(-c3ccc(F)cc3)cc2)n(-c2ccc(Cl)cc2Cl)n1	1	41.3
O=C(O)c1cc(-c2ccc(-c3ccc(F)c(Cl)c3)cc2)n(-c2ccc(Cl)cc2Cl)n1	1	20.9
O=C(O)c1cc(-c2ccc(-c3ccc(Cl)cc3Cl)cc2)n(-c2cccnc2)n1	157	47
O=C(O)c1cc(-c2ccc(-c3ccc(Cl)cc3Cl)cc2)n(-c2ccccn2)n1	> 159	> 100
Clc1ccc(-c2ccc(-c3cc(-c4nnn[nH]4)nn3-c3cccnc3)cc2)c(Cl)c1	82	10.6
NC(=O)c1cc(-c2ccc(-c3ccc(Cl)cc3Cl)cc2)n(-c2ccccn2)n1	> 34	> 100
O=C(O)c1cc(-c2ccc(-c3ccc(C(F)(F)F)cc3)cc2)n(-c2ccc(Cl)cc2Cl)n1	1	33.5
O=C(O)c1cc(-c2ccc(-c3ccc(Cl)cc3Cl)cc2)n(CCO)n1	> 22	> 100
O=C(O)c1cccc(-c2ccc(-c3cc(C(=O)O)nn3-c3ccc(Cl)cc3Cl)cc2)c1	1	40.9
